Patent US11427548B2 (Arvinas Operations, Inc., priority 2015, dated 2022)
Like-named read-outs stand apart in the source and are kept apart here.

Molecular target: T1, Androgen Receptor (Homo sapiens, UniProt P10275)
T1 construct: endogenous in cells; host or cells: VCaP cells
T1 sequence (P10275 1-920): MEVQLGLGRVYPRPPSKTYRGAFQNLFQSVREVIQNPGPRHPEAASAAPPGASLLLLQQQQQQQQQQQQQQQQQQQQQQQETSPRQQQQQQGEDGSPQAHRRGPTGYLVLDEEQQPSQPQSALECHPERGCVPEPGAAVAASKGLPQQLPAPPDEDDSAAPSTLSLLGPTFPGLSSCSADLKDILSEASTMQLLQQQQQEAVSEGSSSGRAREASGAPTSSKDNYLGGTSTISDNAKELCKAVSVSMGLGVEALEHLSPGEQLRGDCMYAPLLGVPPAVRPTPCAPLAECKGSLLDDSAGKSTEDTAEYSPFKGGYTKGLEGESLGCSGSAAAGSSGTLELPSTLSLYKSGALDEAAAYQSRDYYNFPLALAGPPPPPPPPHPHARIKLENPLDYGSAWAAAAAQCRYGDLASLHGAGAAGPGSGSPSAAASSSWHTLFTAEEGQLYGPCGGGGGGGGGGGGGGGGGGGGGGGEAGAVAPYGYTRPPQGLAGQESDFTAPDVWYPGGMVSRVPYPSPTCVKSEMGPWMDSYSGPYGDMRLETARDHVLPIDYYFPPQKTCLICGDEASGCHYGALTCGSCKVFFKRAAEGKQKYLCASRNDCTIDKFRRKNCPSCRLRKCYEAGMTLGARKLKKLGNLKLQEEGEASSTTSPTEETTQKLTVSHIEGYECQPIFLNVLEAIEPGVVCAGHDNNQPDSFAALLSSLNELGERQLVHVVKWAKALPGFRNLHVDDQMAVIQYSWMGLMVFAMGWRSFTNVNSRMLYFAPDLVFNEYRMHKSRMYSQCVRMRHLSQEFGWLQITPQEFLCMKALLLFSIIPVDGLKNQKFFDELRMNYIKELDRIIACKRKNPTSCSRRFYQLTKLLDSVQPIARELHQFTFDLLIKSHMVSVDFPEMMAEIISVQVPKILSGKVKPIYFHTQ
Assay: Androgen Receptor ELISA assay (PathScan AR ELISA) in VCaP cells: AR degradation, Dmax and DC50
Assay type: cell-based
Details: Table 36; for DC50: read-out: VCaP DC50; for Dmax: VCaP
Method in brief: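 After 24 h exposure of VCaP cells (charcoal-stripped serum, 0.1 nM R1881 agonist, 0.1% DMSO) to seven half-log compound concentrations, residual AR in lysates was measured by PathScan ELISA (TMB absorbance, 450 nm). Cells were plated at 30,000/well and grown at least 3 days beforehand.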

[1] = VCaP cells, read-out: VCaP Dmax (%)
[2] = read-out: VCaP Dmax (%), VCaP cells

DC50 (VCaP cells) [µM] | Dmax [1] [%] | Dmax [2] [%] | Structure (SMILES) | VCaP Dmax (%) (VCaP cells)
< 0.05 | 26 to 50 |  | Cc1ncsc1-c1ccc([C@H](C)NC(=O)[C@@H]2C[C@@H](O)CN2C(=O)[C@@H](NC(=O)CCCC/C(CCCc2ccc(C(=O)N[C@H]3C(C)(C)[C@H](Oc4ccc(C#N)c(Cl)c4)C3(C)C)nc2)=N\O)C(C)(C)C)cc1 [Example 693, N-((1r,3r)-3-(3-chloro-4-cyanophenoxy)-2,2,4,4-tetramethylcyclobutyl)-5-((E)-9-(((S)-1-((2S,4R)-4-hydroxy-2-(((S)-1-(4-(4-methylthiazol-5-yl)phenyl)ethyl)carbam-oyl)pyrrolidin-1-yl)-3,3-dimethyl-1-oxobutan-2-yl)amino)-4-(hydroxyimino)-9-oxononyl)picolinamide] | 
< 0.05 |  | 51 to 70 | Cc1ncsc1-c1ccc(C(C)NC(=O)C2CC(O)CN2C(=O)C(NC(=O)CN2CCOCCOCCN(c3ccc(C(=O)NC4C(C)(C)C(Oc5ccc(C#N)c(Cl)c5)C4(C)C)cc3)CCOCCOCC2)C(C)(C)C)cc1 [Example 694, (2S,4R)-1-((S)-2-(2-(16-(4-(((1r,3r)-3-(3-chloro-4-cyanophenoxy)-2,2,4,4-tetramethylcyclobutyl)carbamoyl)phenyl)-1,4,10,13-tetraoxa-7,16-diazacyclooctadecan-7-yl)acetamido)-3,3-dimethylbutanoyl)-4-hydroxy-N-((S)-1-(4-(4-methylthiazol-5-yl)phenyl)ethyl)pyrrolidine-2-carboxamide] | 
0.051 to 0.5 | 51 to 70 |  | CCO/N=C(\CCCCC(=O)N[C@H](C(=O)N1C[C@H](O)C[C@H]1C(=O)N[C@@H](C)c1ccc(-c2scnc2C)cc1)C(C)(C)C)CCCc1ccc(C(=O)N[C@H]2C(C)(C)[C@H](Oc3ccc(C#N)c(Cl)c3)C2(C)C)nc1 [Example 695, N-((1r,3r)-3-(3-chloro-4-cyanophenoxy)-2,2,4,4-tetramethylcyclobutyl)-5-((E)-4-(ethoxyimino)-9-(((S)-1-((2S,4R)-4-hydroxy-2-(((S)-1-(4-(4-methylthiazol-5-yl)phenyl)ethyl)carbam-oyl)pyrrolidin-1-yl)-3,3-dimethyl-1-oxobutan-2-yl)amino)-9-oxononyl)picolinamide] | 
< 0.05 |  | < 25 | CC(C)[C@H](C(=O)N1C[C@H](O)C[C@H]1C(=O)N[C@@H](C)c1ccc(C#N)cc1)c1cc(OCCN2CCN(c3ccc(C(=O)N[C@H]4C(C)(C)[C@H](Oc5ccc(C#N)c(Cl)c5)C4(C)C)cn3)CC2)no1 [Example 696, N-((1r,3r)-3-(3-chloro-4-cyanophenoxy)-2,2,4,4-tetramethylcyclobutyl)-6-(4-(2-((5-((S)-1-((2S,4R)-2-(((S)-1-(4-cyanophenyl)ethyl)carb-amoyl)-4-hydroxypyrrolidin-1-yl)-3-methyl-1-oxobutan-2-yl)isoxazol-3-yl)oxy)ethyl)piperazin-1-yl)nicotinamide] | 
< 0.05 |  | 26 to 50 | CC(NC(=O)C1CC(O)CN1C(=O)C(c1cc(OCCN2CCN(c3ccc(C(=O)NC4C(C)(C)C(Oc5ccc(C#N)c(Cl)c5)C4(C)C)cn3)CC2)no1)C(C)C)c1ccc(C#N)cc1 [Example 697, N-((1r,3r)-3-(3-chloro-4-cyanophenoxy)-2,2,4,4-tetramethylcyclobutyl)-6-(4-(2-((5-((R)-1-((2S,4R)-2-(((S)-1-(4-cyanophenyl)ethyl)carb-amoyl)-4-hydroxypyrrolidin-1-yl)-3-methyl-1-oxobutan-2-yl)isoxazol-3-yl)oxy)ethyl)piperazin-1-yl)nicotinamide] | 
< 0.05 | > 71 |  | Cc1ncsc1-c1ccc([C@H](C)NC(=O)[C@@H]2C[C@@H](O)CN2C(=O)[C@@H](NC(=O)CN2CCN(CCCOCc3cc(C(=O)N[C@@H](C)Cn4ccc(-c5ccc(C#N)c(Cl)c5)n4)n[nH]3)CC2)C(C)(C)C)cc1 [Example 698, N-((S)-1-(3-(3-chloro-4-cyanophenyl)-1H-pyrazol-1-yl)propan-2-yl)-5-((3-(4-(2-(((S)-1-((2S,4R)-4-hydroxy-2-(((S)-1-(4-(4-methylthiazol-5-yl)phenyl)ethyl)carbam-oyl)pyrrolidin-1-yl)-3,3-dimethyl-1-oxobutan-2-yl)amino)-2-oxoethyl)piperazin-1-yl)propoxy)methyl)-1H-pyrazole-3-carboxamide] | 
< 0.05 |  | 26 to 50 | Cc1ncsc1-c1ccc([C@H](C)NC(=O)[C@@H]2C[C@@H](O)CN2C(=O)[C@@H](NC(=O)COCCN(CCCc2ccc(C(=O)N[C@H]3C(C)(C)[C@H](Oc4ccc(C#N)c(Cl)c4)C3(C)C)nc2)CCC(F)(F)F)C(C)(C)C)cc1 [Example 699, N-((1r,3r)-3-(3-chloro-4-cyanophenoxy)-2,2,4,4-tetramethylcyclobutyl)-5-(3-((2-(2-(((S)-1-((2S,4R)-4-hydroxy-2-(((S)-1-(4-(4-methylthiazol-5-yl)phenyl)ethyl)carbam-oyl)pyrrolidin-1-yl)-3,3-dimethyl-1-oxobutan-2-yl)amino)-2-oxoethoxy)ethyl)(3,3,3-trifluoropropyl)amino)propyl)picolinamide] | 
> 0.501 | < 25 |  | CNC(=O)[C@H]1CCCN1C(=O)C(NC(=O)COCCN1CCN(c2ccc(C(=O)N[C@H]3C(C)(C)[C@H](Oc4ccc(C#N)c(Cl)c4)C3(C)C)cn2)CC1)C(C)(C)C (stereo partly drawn) [Example 700, N-((1r,3r)-3-(3-chloro-4-cyanophenoxy)-2,2,4,4-tetramethylcyclobutyl)-6-(4-(2-(2-(((S)-3,3-dimethyl-1-((S)-2-(methylcarbamoyl)pyrroli-din-1-yl)-1-oxobutan-2-yl)amino)-2-oxoethoxy)ethyl)pipera-zin-1-yl)nicotinamide] | 
> 0.501 | < 25 |  | Cc1ncsc1-c1ccc(CNC(=O)[C@@H]2C[C@@H](O)CN2C(=O)C(NC(=O)COCCN2CCN(c3ccc(C(=O)N[C@H]4C(C)(C)[C@H](Oc5ccc(C#N)c(C(F)(F)F)c5)C4(C)C)cn3)C(=O)C2)C(C)(C)C)cc1 (stereo partly drawn) [Example 703] | 
> 0.501 | < 25 |  | Cc1ncsc1-c1ccc(C(NC(=O)[C@@H]2C[C@@H](O)CN2C(=O)C(NC(=O)COCCN2CCN(c3ccc(C(=O)N[C@H]4C(C)(C)[C@H](Oc5ccc(C#N)c(C(F)(F)F)c5)C4(C)C)cn3)CC2)C(C)(C)C)C2COC2)cc1 (stereo partly drawn) [Example 704, N-((1r,3r)-3-(4-cyano-3-(trifluoromethyl)phenoxy)-2,2,4,4-tetramethylcyclobutyl)-6-(4-(2-(2-(((S)-1-((2S,4R)-4-hydroxy-2-(((R)-(4-(4-methylthiazol-5-yl)phenyl)(oxetan-3-yl)methyl)carbamoyl)pyrrolidin-1-yl)-3,3-dimethyl-1-oxobutan-2-yl)amino)-2-oxoethoxy)ethyl)pipera-zin-1-yl)nicotinamide] | 

Structure (SMILES) | DC50 (VCaP cells) [µM] | Dmax [1] [%] | Dmax [2] [%] | VCaP Dmax (%) (VCaP cells)
Cc1ncsc1-c1ccc([C@H](C)NC(=O)[C@@H]2C[C@@H](O)CN2C(=O)[C@@H](c2ncc(CCCN3CCN(c4ccc(C(=O)NC5C(C)(C)C(Oc6ccc(C#N)c(Cl)c6)C5(C)C)cn4)CC3)n2C)C(C)C)cc1 (stereo partly drawn) [Example 701, N-((1r,3r)-3-(3-chloro-4-cyanophenoxy)-2,2,4,4-tetramethylcyclobutyl)-6-(4-(3-(2-((R)-1-((2S,4R)-4-hydroxy-2-(((S)-1-(4-(4-methylthiazol-5-yl)phenyl)ethyl)carbam-oyl)pyrrolidin-1-yl)-3-methyl-1-oxobutan-2-yl)-1-methyl-1H-imidazol-5-yl)propyl)piperazin-1-y)nicotinamide] | > 0.501 |  |  | + (Dmax ≤ 25%)
Cc1ncsc1-c1ccc([C@H](C)NC(=O)[C@@H]2C[C@@H](O)CN2C(=O)[C@H](c2ncc(CCCN3CCN(c4ccc(C(=O)NC5C(C)(C)C(Oc6ccc(C#N)c(Cl)c6)C5(C)C)cn4)CC3)n2C)C(C)C)cc1 (stereo partly drawn) [Example 702, N-((1r,3r)-3-(3-chloro-4-cyanophenoxy)-2,2,4,4-tetramethylcyclobutyl)-6-(4-(3-(2-((S)-1-((2S,4R)-4-hydroxy-2-(((S)-1-(4-(4-methylthiazol-5-yl)phenyl)ethyl)carbam-oyl)pyrrolidin-1-yl)-3-methyl-1-oxobutan-2-yl)-1-methyl-1H-imidazol-5-yl)propyl)piperazin-1-yl)nicotinamide] | > 0.501 |  |  | + (Dmax ≤ 25%)
